Laboratory results from patent US8101760B2, “Glucocorticoid receptor modulator and methods of use” (Eli Lilly and Company, priority 2007, dated 2012).

Tests used:
[1] = biological target: T1, human AR (androgen receptor) (Homo sapiens, UniProt P10275); assay: Nuclear hormone receptor binding assay, AR
T1 construct: expressed in transfected cells; host or cells: HEK293 (lysate, '293-AR lysate')
T1 sequence (P10275 1-920): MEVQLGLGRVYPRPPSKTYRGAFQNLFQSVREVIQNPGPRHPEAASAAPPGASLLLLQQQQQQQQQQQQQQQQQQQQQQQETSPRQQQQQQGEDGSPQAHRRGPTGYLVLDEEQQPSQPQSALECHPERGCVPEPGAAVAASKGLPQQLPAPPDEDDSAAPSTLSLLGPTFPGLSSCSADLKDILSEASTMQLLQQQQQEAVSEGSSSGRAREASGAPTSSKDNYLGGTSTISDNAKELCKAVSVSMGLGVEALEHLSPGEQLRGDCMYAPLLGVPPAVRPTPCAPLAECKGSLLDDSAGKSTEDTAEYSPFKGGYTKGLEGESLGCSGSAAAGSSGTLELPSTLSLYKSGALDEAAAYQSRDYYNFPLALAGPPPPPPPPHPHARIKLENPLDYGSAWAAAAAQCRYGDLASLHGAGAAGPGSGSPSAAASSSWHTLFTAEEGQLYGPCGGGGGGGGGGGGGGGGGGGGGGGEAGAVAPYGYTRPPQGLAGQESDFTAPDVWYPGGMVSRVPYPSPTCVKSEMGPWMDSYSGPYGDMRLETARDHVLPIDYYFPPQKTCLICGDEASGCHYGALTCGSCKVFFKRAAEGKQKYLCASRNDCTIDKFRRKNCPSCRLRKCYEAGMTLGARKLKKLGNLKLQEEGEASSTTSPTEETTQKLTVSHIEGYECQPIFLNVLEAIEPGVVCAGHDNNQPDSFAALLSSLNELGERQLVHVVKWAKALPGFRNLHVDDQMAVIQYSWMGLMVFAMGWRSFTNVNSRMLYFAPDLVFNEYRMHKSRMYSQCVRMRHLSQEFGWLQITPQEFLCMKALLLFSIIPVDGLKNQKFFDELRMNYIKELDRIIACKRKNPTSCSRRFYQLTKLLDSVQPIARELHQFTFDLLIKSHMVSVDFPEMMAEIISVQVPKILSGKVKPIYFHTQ
Method: Cell lysates from human embryonic kidney HEK293 cells overexpressing human GR (glucocorticoid receptor), AR (androgen receptor), MR (mineralocorticoid receptor), or PR (progesterone receptor) are used for receptor-ligand competition binding assays to determine Ki values.
Briefly, steroid receptor competition binding assays are run in a buffer containing 20 mM Hepes buffer (pH=7.6), 0.2 mM EDTA, 75 mM NaCl, 1.5 mM MgCl2, 20% glycerol, 20 mM sodium molybdate, 0.2 mM DTT (dithiothreitol), 20 μg/mL aprotinin and 20 μg/mL leupeptin. Typically, steroid receptor binding assays include radio-labeled ligands, such as 0.3 nM [^3H]-dexamethasone for GR binding, 0.36 nM [^3H]-methyltrienolone for AR binding, 0.25 nM [^3H]-aldosterone for MR binding, and 0.29 nM [^3H]-methyltrienolone for PR binding, and either 20 μg 293-GR lysate, 22 μg 293-AR lysate, 20 μg 293-MR lysate or 40 μg 293-PR lysate per well. Assays are typically run in 96-well format. Competing test compounds are added at various concentrations ranging from about 0.01 nM to 10 μM. Non-specific binding is determined in the presence of 500 nM dexamethasone for GR binding, 500 nM aldosterone for MR binding, or 500 nM methyltrienolone for AR and PR binding. […] After an incubation of 2 hours, plates are read in a Wallac Microbeta counter. […]

[2] = test system: LPS-stimulated TNF-α production in PMA-differentiated U937 cells; assay: GR-mediated transrepression: LPS-stimulated TNF-α production in PMA-differentiated U937 cells; assay type: cell-based; conditions: Homo sapiens, U-937, mean of 6 determinations, read-out: EC50, inhibition of TNF-α expression
Method: 2. LPS-Stimulated TNF-α Production in PMA-Differentiated U937 Cells:
Human U937 pre-monocytic cells (ATCC Catalog #CRL-1593.2) are grown in complete RPMI 1640 medium (ATCC Catalog #30-2001) containing 10% fetal bovine serum (FBS). To allow monocytes to differentiate to adherent macrophages, U937 cells are washed in PBS (Calcium, magnesium-free) and resuspended in fresh RPMI medium containing 20 nM phorbol 12-myristate-13-acetate (PMA) overnight. After differentiation, test compounds are added to the cells in the 96-well plate at various concentrations ranging from about […] to 4.64 μM. 1-hour post treatment with test compound, LPS is added at final concentration of 100 ng/mL and the reaction mixture is incubated overnight.
TNF-α production is measured with an ELISA kit (R&D Systems, Inc., Minneapolis, Minn., U.S.A.) using standard techniques. Briefly, 25 μL cell-free supernatant is transferred to another 96-well plate and 75 μL of assay buffer is added. TNF-α is quantified by reading absorbance at 450 nm. A standard curve of absorbance versus TNF-α concentration is constructed and used to determine the concentration of TNF-α in experimental samples.

[3] = Metabolic profiling of plasma after in vivo administration, rat
[4] = Metabolic profiling of plasma after in vivo administration, monkey
[5] = Hygroscopicity and solid-state stability; assay type: physicochemical

CC/C(=C1\c2ccc(Cl)cc2OCc2ncccc21)c1cccc(NS(C)(=O)=O)c1 [Compound (I), (E)-N-{3-[1-(8-Chloro-11H-10-oxa-1-aza-dibenzo[a,d]cyclohepten-5-ylidene)-propyl]-phenyl}-methanesulfonamide]
Ki ([1]; HEK293 cell lysate expressing human AR, [3H]-methyltrienolone, mean of 5 determinations): 16.2 nM | greater affinity for GR relative to AR ([1]; binding selectivity GR vs AR): ≥ 30 fold | EC50 [2]: ~30 nM | circulating entity in plasma [3]: major circulating entity | metabolites in plasma [4]: no metabolites detected | circulating entity in plasma ([4]; after in vivo administration): major circulating entity | hygroscopicity [5]: non-hygroscopic | stability ([5]; increased temperature, relative humidity, and light exposure): stable
